{
  "source": "patent US20200290950A1",
  "about": "“ALKAMIDE COMPOUNDS AND USES THEREOF” (NORTH CAROLINA STATE UNIVERSITY, priority 2017, published 2020)",
  "key": {"[1]": {"test_system": "RBL-2H3 cells", "assay": "β-hexosaminidase degranulation assay, RBL-2H3 cells (Example 1)", "format": "cell-based, rat", "description": "FIGS. 1A-1F. A15 inhibits BMMC and RBL-2H3 cell degranulation. The structure of alkamide A15 is shown with different functional groups and carbons in the fatty acid chain labeled (FIG. 1A). BMMCs were plated and stimulated 4 hrs later with 1 μM A23187 and the indicated concentrations of A15 or vehicle only. The percent degranulation was measured after 1 hr (FIG. 1B). RBL-2H3 cells were treated with A23187 and the percent degranulation was determined 1 hr later (FIG. 1C) or every 10 min over a 1 hr time course (FIG. 1D). RBL-2H3 cells were plated and incubated for 4 hrs before the media was aspirated and replaced with media containing 1 μg/mL IgE anti-DNP. Cells were incubated overnight and washed prior to stimulation. […] RBL-2H3 cells were stimulated for 1 hr in Tyrode's buffer before supernatants were collected and levels of histamine were measured using a competitive inhibition EIA kit (FIG. 1F). […]\nFIGS. 5A-5D. […] Percent degranulation was measured 1 hr after stimulation with 1 μM A23187 in combination with vehicle only or 25 μg/mL of the indicated E. purpurea samples. […] RBL-2H3 cells were loaded with fluo-4 AM using the Fluo-4 AM Direct™ Calcium Assay Kit and fluorescence was measured on a microplate reader. […]\nRBL-2H3 cell and BMMC degranulation was measured using a β-hexosaminidase (β-hex) activity assay. […] Absorbance was read at 405 nm on a BioTek Synergy HT microplate reader. […]"}, "[2]": {"target": "T1, TRPA1 (Mus musculus, UniProt Q8BLA8)", "T1 construct": "The receptors TRPA1 and TRPV1 are expressed on neurons; from tissue; host or cells: primary dorsal root ganglion neurons from mice", "T1 sequence (Q8BLA8 whole entry)": "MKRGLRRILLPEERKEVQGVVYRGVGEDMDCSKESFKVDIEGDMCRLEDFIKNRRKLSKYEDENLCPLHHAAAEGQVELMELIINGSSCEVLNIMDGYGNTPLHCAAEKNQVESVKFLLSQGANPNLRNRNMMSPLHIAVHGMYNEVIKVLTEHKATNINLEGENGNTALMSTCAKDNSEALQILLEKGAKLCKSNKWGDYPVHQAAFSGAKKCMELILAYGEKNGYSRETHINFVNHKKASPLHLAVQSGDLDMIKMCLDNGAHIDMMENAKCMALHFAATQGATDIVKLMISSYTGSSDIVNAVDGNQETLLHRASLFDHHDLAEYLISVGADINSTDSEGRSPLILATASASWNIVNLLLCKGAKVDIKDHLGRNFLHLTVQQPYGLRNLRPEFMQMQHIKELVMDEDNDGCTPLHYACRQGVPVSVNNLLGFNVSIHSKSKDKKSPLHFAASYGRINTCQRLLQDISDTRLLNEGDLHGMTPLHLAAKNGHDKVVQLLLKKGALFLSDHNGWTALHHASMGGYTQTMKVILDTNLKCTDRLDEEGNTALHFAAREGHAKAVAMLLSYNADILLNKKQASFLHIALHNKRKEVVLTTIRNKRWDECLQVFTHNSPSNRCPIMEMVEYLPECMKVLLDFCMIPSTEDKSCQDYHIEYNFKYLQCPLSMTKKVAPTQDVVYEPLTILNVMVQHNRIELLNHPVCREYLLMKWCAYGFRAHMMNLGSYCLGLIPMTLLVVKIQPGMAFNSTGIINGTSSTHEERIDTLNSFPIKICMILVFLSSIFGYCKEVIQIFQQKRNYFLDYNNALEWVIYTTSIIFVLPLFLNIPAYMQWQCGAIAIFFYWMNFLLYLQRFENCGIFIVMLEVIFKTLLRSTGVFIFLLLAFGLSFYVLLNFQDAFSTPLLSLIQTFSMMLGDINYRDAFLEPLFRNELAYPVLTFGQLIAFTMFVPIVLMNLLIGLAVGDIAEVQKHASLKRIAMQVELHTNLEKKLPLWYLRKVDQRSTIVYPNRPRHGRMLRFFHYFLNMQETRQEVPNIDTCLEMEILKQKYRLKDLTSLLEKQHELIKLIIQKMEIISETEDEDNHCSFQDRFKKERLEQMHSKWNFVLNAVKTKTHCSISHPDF", "assay": "Calcium response of DRG neurons to mustard (allyl isothiocyanate)", "format": "cell-based", "details": "cultured DRG neurons, fluorescence microscopy", "excerpt": "FIG. 11. Calcium response from DRG sensory neurons to alkamide of transient receptors. Mustard a TRPA1-receptor agonist activates DRG neurons in gray (A) and capsaicin, an agonist for TRPV1-receptors in the DRG neurons in red (B). Ligand A15 inhibits both TRPA1 and TRPV1 receptors activation in orange; however, 85Y a synthetic ligand only reduces the inhibition of TRPA1 but not TRPV1 receptors in blue. Total number of neurons (n)=135-145; p≤0.05.\nSeveral different model systems were utilized for these experiments. In one model, dorsal root ganglia were obtained from mice and the neurons cultured in vitro. The neurons were then stimulated in the presence/absence of A15 and YM8-85 and the calcium responses monitored by fluorescence microscopy. In the second model, the alkamides were applied to mouse skin in mineral oil. The reactions of these mice to heat, cold, and tactile stimulation was then compared with mice that had not received treatment with A15. […] Alkamides were applied to sensitized animals and then ear swelling and bouts of scratching were monitored.\nIn vitro DRG neuron responses. […] Neurons were stimulated with mustard (allyl isothiocyanate) (A) an agonist for the receptor TRPA-1 or capsaicin (B) an agonist for the receptor TRPV-1 and calcium responses were measured in individual neurons by fluorescence microscopy. […]"}, "[3]": {"assay": "TDI-induced ear swelling", "format": "in vivo, mouse", "excerpt": "Several different model systems were utilized for these experiments. In one model, dorsal root ganglia were obtained from mice and the neurons cultured in vitro. The neurons were then stimulated in the presence/absence of A15 and YM8-85 and the calcium responses monitored by fluorescence microscopy. In the second model, the alkamides were applied to mouse skin in mineral oil. The reactions of these mice to heat, cold, and tactile stimulation was then compared with mice that had not received treatment with A15. In a third model, mice were sensitized to the chemical compound toluene-2,4-diisocyanate (TDI). TDI is an industrial chemical which causes hypersensitive skin lesions and itching in exposed humans and animals. The physiological response to TDI is complex involving type 2 T lymphocytes, cytokines, mast cells, and neurons. Alkamides were applied to sensitized animals and then ear swelling and bouts of scratching were monitored.\nA15 and TDI induced hypersensitivity. Mice were sensitized to toluene-2,4-diisocyanate (TDI) via abdominal application. Subsequently, a hypersensitive response was induced in the ear by direct application of TDI and ear thickness measured as a sign of inflammation."}},
  "data": [
    {"smiles": "CCCCCCC/C=C/C=C/C(=O)NCC(C)C", "note": "[A15, (2E,4E)-N-Isobutyldodeca-2,4-dienamide]", "values": [
      {"measurement": "degranulation", "setting": "[1]; RBL-2H3 cells activated by IgE anti-DNP and DNP-BSA", "value": "inhibited degranulation"},
      {"measurement": "inhibition at 100 µM", "setting": "[1]; Rattus norvegicus, A23187-stimulated RBL-2H3 cells, 100 μM, 1 hr, read-out: inhibition of release of β-hex", "value": 48.4, "unit": "%"},
      {"measurement": "DRG neuron calcium response to mustard (TRPA1 agonist)", "setting": "[2]", "value": "inhibit"},
      {"measurement": "TDI ear swelling (ear thickness)", "setting": "[3]; 0.1%, first experiment (FIG. 13A)", "value": "significant inhibitory effect"},
      {"measurement": "TDI ear swelling (ear thickness)", "setting": "[3]; 0.1%, repeated experiment (FIG. 13B)", "value": "neither A15 nor YM8-85 at 0.1% produced significant inhibition"},
      {"measurement": "TDI ear swelling (ear thickness)", "setting": "[3]; 1%, first experiment (FIG. 13A)", "value": "significant responses were not seen"}
    ]}
  ]
}
